Assay results reported in ChEMBL document CHEMBL1129166, “Design and synthesis of novel, pseudo C2 symmetric inhibitors of HIV protease” (Bioorg Med Chem Lett, 1996).

Key:
[1] = biological target: Human immunodeficiency virus type 1 protease (Human immunodeficiency virus 1, UniProt Q72874); test: Compound was evaluated for the inhibition of HIV protease
[2] = biological target: Human immunodeficiency virus type 1 protease (Human immunodeficiency virus 1) (UniProt Q72874); test: Compound was evaluated for the inhibition of HIV protease at 0.5 uM

Row | Structure (SMILES) | IC50 [1] [nM] | inhibition [2] [%]
1 | O=C(N[C@H](CC[C@H](O)[C@H](Cc1ccccc1)NC(=O)c1ccccc1NS(=O)(=O)c1ccccn1)Cc1ccccc1)c1ccccc1NS(=O)(=O)c1ccccn1 | > 3000 | 
2 | CC(C)(C)OC(=O)N[C@H](CC[C@H](O)[C@H](Cc1ccccc1)NC(=O)OC(C)(C)C)Cc1ccccc1 | 380 | 
3 | CC(C)[C@H](NC(=O)OCc1ccccc1)C(=O)N[C@@H](Cc1ccccc1)CC1(C[C@H](Cc2ccccc2)NC(=O)[C@@H](NC(=O)OCc2ccccc2)C(C)C)CCC(=O)N1 | 2700 | 
4 | CC(C)C(NC(=O)OCc1ccccc1)C(=O)N[C@H](CC[C@H](O)[C@H](Cc1ccccc1)NC(=O)C(NC(=O)OCc1ccccc1)C(C)C)Cc1ccccc1 (stereo not given in full) | > 1 | 62
5 | CC(C)C(NC(=O)OCc1ccccc1)C(=O)N[C@H](CC[C@@H](O)[C@H](Cc1ccccc1)NC(=O)C(NC(=O)OCc1ccccc1)C(C)C)Cc1ccccc1 (stereo not given in full) | 200 | 
6 | O=C(Nc1ccccc1C(=O)N[C@H](CC[C@H](O)[C@H](Cc1ccccc1)NC(=O)c1ccccc1NC(=O)OCc1ccccn1)Cc1ccccc1)OCc1ccccn1 | 14 | 
7 | CC(C)[C@H](NC(=O)N(C)Cc1ccccn1)C(=O)N[C@@H](Cc1ccccc1)[C@H](O)[C@H](O)[C@H](Cc1ccccc1)NC(=O)[C@@H](NC(=O)N(C)Cc1ccccn1)C(C)C [A-77003] | > 1 | 57
8 | CC(C)C(NC(=O)OCc1ccccc1)C(=O)N[C@@H](Cc1ccccc1)CC(C[C@H](Cc1ccccc1)NC(=O)C(NC(=O)OCc1ccccc1)C(C)C)[N+](=O)[O-] (stereo not given in full) | 1500 | 
